Results: US7211572B2 (Japan Tobacco Inc., priority 2003, dated 2007)

biological target: T1, HIV integrase (Human immunodeficiency virus type 1 group M subtype B, UniProt P12497, F1332H); assay: Determination of enzyme (HIV integrase) inhibitory activity; type: biochemical; settings: recombinant HIV integrase (F185H), strand transfer ELISA, absorbance at 450 nm
T1 construct: HIV integrase full length gene; made in house; host or cells: Escherichia coli BL21(DE3), plasmid pET21a-INH
Method in brief: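 Full-length integrase with F185H, expressed in E. coli and purified, was reacted for 60 min at 37 °C with compound and biotinylated donor DNA bound to streptavidin plates. Target DNA was added for 10 min, then anti-digoxigenin-peroxidase detection at A450; IC50 from % inhibition versus enzyme-free blank.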

Compared with CCC(O)c1cn(Cc2ccc(Cl)c(Cl)c2)c(=O)c2c(O)c(=O)ccn12 (stereo not drawn) [Example 430, 2-(3,4-dichlorobenzyl)-9-hydroxy-4-(1-hydroxypropyl)-2H-pyrido[1,2-a]pyrazine-1,8-dione], CC(C)C(O)c1cn(Cc2ccc(Cl)c(Cl)c2)c(=O)c2c(O)c(=O)ccn12 (stereo not drawn) [Example 432, 2-(3,4-dichlorobenzyl)-9-hydroxy-4-(1-hydroxy-2-methylpropyl)-2H-pyrido[1,2-a]pyrazine-1,8-dione] is lower in IC50: 0.01 to 0.1 µM for the first, less than 0.01 µM for the second.

For O=c1ccn2c(CCCO)cn(Cc3ccc(Cl)c(Cl)c3)c(=O)c2c1O [Example 431, 2-(3,4-dichlorobenzyl)-9-hydroxy-4-(3-hydroxypropyl)-2H-pyrido[1,2-a]pyrazine-1,8-dione], the IC50 was 0.01 to 0.1 µM.
